Tested on: hepatocytes
Assay: Seq-Well scRNA-Seq of hepatocytes after APAP overdose (signature scores, DEG vs untreated)
Format: in vivo, mouse
Details: A6 vs UT

CC(=O)Nc1ccc(O)cc1 [APAP, acetaminophen]
Ndufb3 A6logFC: −0.3272
Ndufb6 avg_logFC: −0.5077
Ndufb6 pct.1: 0.475
Ndufb9 avg_logFC: −0.5038
Ndufb9 pct.1: 0.661
Ndufb10 A6logFC: −0.3004
Ndufc2 avg_logFC: −0.4253
Ndufc2 pct.1: 0.36
Ndufs4 A6logFC: −0.3132
Ndufs6 avg_logFC: −0.5379
Ndufs6 pct.1: 0.482
Ndufv2 A6logFC: −0.3276
Ndufv2 avg_logFC: −0.3276
Ndufv2 pct.1: 0.461
Neat1 avg_logFC: 0.6374
Neat1 pct.1: 0.31
Nek7 A6logFC: 0.2911
Nek7 avg_logFC: 0.2911
Nek7 pct.1: 0.394
Net1 A6logFC: 0.3479
Nid1 avg_logFC: 0.3426
Nit2 avg_logFC: −0.4859
Nit2 pct.1: 0.301
Nolc1 avg_logFC: 0.4722
Nolc1 pct.1: 0.363
Nop56 avg_logFC: 0.2657
Nop56 pct.1: 0.282
Nop58 avg_logFC: 0.6634
Nploc4 A6logFC: 0.2918
Nploc4 avg_logFC: 0.2918
Nploc4 pct.1: 0.351
Nqo2 A6logFC: −0.2678
Nqo2 avg_logFC: −0.2678
Nqo2 pct.1: 0.317
Nr0b2 avg_logFC: −0.293
Nr0b2 pct.1: 0.086
Nr1i3 avg_logFC: −0.4127
Nr1i3 pct.1: 0.165
Nr2f6 avg_logFC: −0.3754
Nr2f6 pct.1: 0.234
Nrip1 avg_logFC: 0.2729
Nrip1 pct.1: 0.246
Nucks1 A6logFC: 0.3558
Nudt4 A6logFC: 0.2542
Nudt7 avg_logFC: −1.564
Oaf avg_logFC: −0.7329
Oat avg_logFC: −1.225
PM20l1 avg_logFC: 0.3085
PM20l1 pct.1: 0.372
Pa2g4 A6logFC: 0.2893
Pa2g4 avg_logFC: 0.2893
Pa2g4 pct.1: 0.492
Pabpc1 avg_logFC: 0.4101
Pabpc1 pct.1: 0.697
Pah avg_logFC: −0.5221
Pak2 avg_logFC: 0.2815
Pak2 pct.1: 0.308
Papss2 A6logFC: −0.2545
Papss2 avg_logFC: −0.2545
Papss2 pct.1: 0.337
Paqr9 A6logFC: −0.3323
Park7 avg_logFC: −0.2602
Park7 pct.1: 0.601
Pbld1 avg_logFC: −0.4425
Pbld1 pct.1: 0.315
Pcbd1 avg_logFC: −0.6878
Pck1 avg_logFC: −0.6522
Pcm1 A6logFC: 0.2654
Pcm1 avg_logFC: 0.2654
Pcm1 pct.1: 0.274
Pde3b A6logFC: −0.259
Pde3b avg_logFC: −0.259
Pde3b pct.1: 0.243
Pdia4 avg_logFC: −0.2719
Pdia4 pct.1: 0.43
Pdia6 avg_logFC: −0.39
Pdia6 pct.1: 0.47
Pdzd8 A6logFC: 0.2863
Pdzd8 avg_logFC: 0.2863
Pdzd8 pct.1: 0.36
Pecr avg_logFC: −0.3981
Pecr pct.1: 0.446
Pet100 A6logFC: −0.28
Pfkfb2 avg_logFC: 0.29
Pfkfb2 pct.1: 0.26
Pgls A6logFC: −0.2747
Pgls avg_logFC: −0.2747
Pgls pct.1: 0.22
Phf20l1 A6logFC: 0.3085
Phlda1 avg_logFC: 0.5492
Pi4k2a A6logFC: 0.3536
Picalm avg_logFC: 0.7545
Pigr avg_logFC: 0.3487
Pigr pct.1: 0.947
Pkp4 A6logFC: 0.323
Pkp4 avg_logFC: 0.323
Pkp4 pct.1: 0.401
Pla2g7 avg_logFC: 0.2823
Pla2g7 pct.1: 0.119
Plbd2 A6logFC: 0.2649
Plbd2 avg_logFC: 0.2649

— patent publication US20230053540A1, “TREATMENT OF LIVER INJURY” (Massachusetts Institute of Technology, priority 2019, published 2023)
